In data set [1] the test system is Sprague Dawley rats. Nature of the data set: Mortality in five-day oral gavage exposure; LD50 calculation (BMDS 3.3.2). The settings on record: for LD50 estimate (lower and upper 95% bounds): oral gavage, BMDS 3.3.2 multistage 3 model. As to the method:
Male and female rats (n = 4/sex, dose, and time point) were dosed by gavage (5 mL/kg bodyweight) once daily for five days with water (vehicle control) or HFPO-TeA at eight half-log dose levels ranging from 0.3 to 335.2 mg/kg/day (i.e., 0.3, 0.9, 2.3, 6.3, 17, 45.9, 124, and 335.2). The results reported here are part of a larger study, for which the main purpose was to use benchmark dose–response modeling of transcriptomic data to identify a gene set basis for the point of departure (POD).
Clinical observations were performed prior to first administration and at termination. Moribundity and mortality were assessed twice daily on weekdays and once daily on weekends. Animals found moribund were euthanized by carbon dioxide inhalation and death was confirmed by cervical dislocation.
The mortality incident data were analyzed using BMDS 3.3.2, with the dichotomous model selected as the model type. The Benchmark Response was set at 0.5 extra risk. LD50 estimates were based on the model with the lowest Akaike information criterion (AIC).

The nature of data set [2]: Liver-to-plasma partitioning (Kp). Particulars: Sprague Dawley, rat, oral, 5 days. It counts as in vivo, Sprague Dawley rats. As for the experimental part: Liver samples were analyzed using the same analytical assessment procedure as the plasma dosimetry samples. Matrix blanks were analyzed with each sample set. HFPO-TeA was not detected in the blanks above the limit of quantitation (LOQ) of 1.58 µM. Statistical analysis is described in Supplementary Text S3, normalization calculations are described in Supplementary Text S5 [47], and the liver-to-plasma partitioning calculation is outlined in Supplementary Text S7 [32, 50, 51]. […]
(§1) tube, and then further crashed with 200 µL ACN. This was repeated twice more to generate a final combined supernatant volume of 600 µL. Supernatants were stored at -20 °C prior to analysis.
Samples were quantitated against matrix-matched calibration curves containing a minimum of 5 points spanning the range 0.99 – 141 ng/mg liver (wet weight, ww). For the calibration standards, commercial rat liver (BioIVT) was spiked with HFPO-TeA and PFHxDA, homogenized, and extracted using the above procedure.
Support ing Text S7: Plasma-to-Liver Partitioning Calculations
Concentrations of HFPO-TeA in liver and plasma were used to calculate experimental Kp values for both sexes across all dose levels using Equation A [3-5].

Data set [3] is described as follows: Non-targeted analysis of plasma and liver (in vivo). Also noted: species or system Sprague Dawley rats. Particulars: for relative peak area abundance (RA) vs. HFPO-TeA, Plasma: 5 days, mean ± SD n=8. As to the method: Extracts of plasma (50 µL), liver (10 mg), and hepatocyte metabolism assay media (10 µL) were analyzed by high-resolution, accurate mass non-targeted analysis (NTA) for the detection and identification of potential biotransformation products of HFPO-TeA. A mixture of ^13C-labeled PFAS compounds (MPAC-C-ES, Wellington Laboratories, Guelph, ON, Canada) were used as tracers. Samples were extracted, as detailed above (in vivo) and below (in vitro), and then analyzed in triplicate in a randomized order on a Sciex X500R QTOF. Additional information on NTA instrumental analysis and data processing parameters is presented in Supplementary Text S8 and Tables S8 and S10 [52]. […] A screening list of potential biotransformation products was generated using the U.S. EPA web application CTS: Chemical Transformation Simulator 1.0 and Biotransformer 3.0 [53, 54]. In some instances, molecular structure predictions were performed using MetFrag. […]
as §1
Samples were quantitated against matrix-matched calibration curves containing a minimum of 5 points spanning the range 0.99 – 141 ng/mg liver (wet weight, ww). For the calibration standards, commercial rat liver (BioIVT) was spiked with HFPO-TeA and PFHxDA, homogenized, and extracted using the above procedure. […]
Support ing Text S8: Non- Target ed Analysis Met hod and Data Processing Each sample batch included a mobile phase blank and solvent blank to monitor for the presence of laboratory contamination, and a system suitability sample consisting of the set of isotopically labeled PFAS tracer compounds spiked into extraction solvent to monitor instrument performance prior to sample analysis. […] A high-resolution, exact mass spectral library created in house from IDA scans of commercially available PFAS standards analyzed on the same mass spectrometer as the samples and using the same instrument parameters was used for library searches. […]

The subject of data set [4] is rats. Also noted: method as in PMID 28962433, PMID 30920876. Particulars: exposures up to 500 mg/kg/day; cited from earlier work.

Each structure is given as a SMILES string. Read-outs that look alike come from different tables or passages of the source.

Consider three compounds from paper PMC10747602, “Dose Response, Dosimetric, and Metabolic Evaluations of Replacement PFAS Perfluoro-(2,5,8-trimethyl-3,6,9-trioxadodecanoic) Acid (HFPO-TeA)” (Toxics, 2023).

With `O=C(O)C(F)(OC(F)(F)C(F)(OC(F)(F)C(F)(OC(F)(F)C(F)(F)C(F)(F)F)C(F)(F)F)C(F)(F)F)C(F)(F)F` (stereo not drawn) [HFPO-TeA, perfluoro-(2,5,8-trimethyl-3,6,9-trioxadodecanoic) acid], the “LD50 estimate (lower and upper 95% bounds)” value in data set [1] (females) is 28.23 (18.69 and 41.57) mg/kg/day; in data set [1] (males) it was 37.77 (26.09 and 59.96) mg/kg/day. Besides, the premature death entry in data set [1] (male and female rats, 45.9, 124, and 335.2 mg/kg/day dose groups) is “Premature death occurred”. Also, in data set [1] (male and female rats, oral gavage five days), the “doses at which mortality was observed” value is greater than 17 mg/kg/day. For the same compound, the Kp at 120 h is 7.81 ± 4.68 in data set [2] (female, 0.3 mg/kg/day, F, mean ± SD n=4, read-out: Liver Kp (liver-to-plasma ratio)); 4.04 ± 1.37 in data set [2] (female, 0.9 mg/kg/day, F, mean ± SD n=4, read-out: Liver Kp (liver-to-plasma ratio)); 1.9 ± 1.47 in data set [2] (female, 2.3 mg/kg/day, F, mean ± SD n=4, read-out: Liver Kp (liver-to-plasma ratio)); 1.65 ± 0.46 in data set [2] (female, 6.3 mg/kg/day, F, mean ± SD n=4, read-out: Liver Kp (liver-to-plasma ratio)); 0.903 ± 0.145 in data set [2] (female, 17 mg/kg/day, F, mean ± SD n=4, read-out: Liver Kp (liver-to-plasma ratio)); 7.28 ± 3.71 in data set [2] (male, 0.3 mg/kg/day, M, mean ± SD n=4, read-out: Liver Kp (liver-to-plasma ratio)). For the same compound, the Kp at 120 h in data set [2] (male, 0.9 mg/kg/day, M, mean ± SD n=4, read-out: Liver Kp (liver-to-plasma ratio)) was 3.38 ± 1.24; in data set [2] (male, 2.3 mg/kg/day, M, mean ± SD n=4, read-out: Liver Kp (liver-to-plasma ratio)), 1.54 ± 0.91; in data set [2] (male, 6.3 mg/kg/day, M, mean ± SD n=4, read-out: Liver Kp (liver-to-plasma ratio)) it was 3.41 ± 0.6; in data set [2] (male, 17 mg/kg/day, M, mean ± SD n=4, likely influenced by high toxicity and stress, read-out: Liver Kp (liver-to-plasma ratio)), 1.32 ± 0.55. In addition, the “presence of predicted conjugates (non-targeted analysis)” value in data set [3] (plasma or liver) is “No ions that suggested the presence of the three predicted HFPO-TeA conjugates were observed”.
On to `O=C(O)C(F)(OC(F)(F)C(F)(F)C(F)(F)F)C(F)(F)F` (stereo not drawn) [HFPO-DA, perfluoro-2-methyl-3-oxahexanoic acid], for which the premature mortality result in data set [4] was “no reported premature mortality”.
For `O=C(O)C(F)(OC(F)(F)C(F)(OC(F)(F)C(F)(F)C(F)(F)F)C(F)(F)F)C(F)(F)F` (stereo not drawn) [HFPO-TA, perfluoro-(2,5-dimethyl-3,6-dioxanonanoic) acid], the “relative peak area abundance (RA) vs. HFPO-TeA, Plasma” value in data set [3] (HFPO-TeA dose 6.3 mg/kg/day) was determined as 0.05 ± 0.04; in data set [3] (HFPO-TeA dose 17 mg/kg/day), 1.83 ± 0.85.
